Drawing on PubChem BioAssay (NCI), this text covers TGI and GI50 for 15 compounds.

“And” between values parts separate entries of the source, which are not always exact repeats. Equal entries are not always repeated.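 Exposure lasted 48 hours, with cells grown in 96-well plates and compounds tested at five concentrations. The concentration for 50% growth inhibition is given as GI50. TGI: concentration producing complete growth inhibition.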 Where only a bound is given, the exact number is not on record here.

Among the test systems are UO-31 renal; HOP-92 NSCLC; NCI/ADR-RES ovarian; SF-268 CNS; CAKI-1 renal; OVCAR-5 ovarian; MOLT-4 leukemia; MDA-MB-435; SR leukemia; NCI-H226 lung.
What all share (experiment): growth of human tumour cells (NCI), 48 h

With `O=C(O)CSCC(=O)Nc1ccc2cccc3c2c1CC3`, the TGI in the test with UO-31 renal, in the test with HOP-92 NSCLC, with NCI/ADR-RES ovarian, in the test with SF-268 CNS, in the test with CAKI-1 renal and with OVCAR-5 ovarian was greater than 100 µM in each case. For the same compound, the TGI in the test with MOLT-4 leukemia and in the test with MDA-MB-435 was greater than 100 µM each time.
On to `O=C(O)CSc1cc(-c2ccccc2)nc2ccccc12`, for which the TGI with SR leukemia, with UO-31 renal, in the test on HOP-92 NSCLC, in the test on NCI/ADR-RES ovarian, with SF-268 CNS and with CAKI-1 renal was greater than 100 µM each time. For the same compound, the results for the TGI in the test with OVCAR-5 ovarian, in the test with MOLT-4 leukemia and with MDA-MB-435 were greater than 100 µM, greater than 100 µM and 38 µM, respectively.
In the case of `COC(=O)NCCc1[nH]nc2c1C(=O)C=C(Nc1ccccc1)C2=O`, the TGI in the test on SR leukemia is 65.2 µM; in the test with UO-31 renal, greater than 100 µM; in the test with HOP-92 NSCLC it was 95.5 µM; in the test on NCI/ADR-RES ovarian it was 70.3 µM; with SF-268 CNS, greater than 100 µM; in the test with CAKI-1 renal it was greater than 100 µM. For the same compound, the results for the TGI in the test on OVCAR-5 ovarian, in the test on MOLT-4 leukemia and with MDA-MB-435 were greater than 100 µM, 54.4 µM and 31.1 µM, respectively.
For the compound `Cc1cc2[nH]c3c(C#N)c(-c4ccccc4)c(N=Nc4cccc(C(F)(F)F)c4)c(=O)n3c2cc1C`, the TGI in the test with UO-31 renal, in the test on NCI-H226 lung, in the test with NCI/ADR-RES ovarian, in the test on SF-268 CNS, with CAKI-1 renal and in the test on OVCAR-5 ovarian was greater than 100 µM each time. The same compound showed a TGI with MDA-MB-435 greater than 100 µM.
For `COc1cc(N=NN(C)C)c(C(C)c2c3cc(OC)c(OC)cc3cc[n+]2C)cc1OC` (stereo not drawn), the TGI in the test with UO-31 renal, with NCI-H226 lung, with NCI/ADR-RES ovarian, in the test with SF-268 CNS, in the test with CAKI-1 renal and in the test with OVCAR-5 ovarian was greater than 100 µM each time. Besides, the TGI with MOLT-4 leukemia and in the test with MDA-MB-435 was greater than 100 µM each time.
On to `COc1ccc(Cc2nc3cc(C(F)(F)F)ccc3n2CCCN(C)C)cc1`, for which the TGI in the test with UO-31 renal is 1.04 µM; in the test on NCI-H226 lung it was greater than 100 µM; in the test with HOP-92 NSCLC, greater than 100 µM; in the test on NCI/ADR-RES ovarian it was 45.2 µM; in the test on SF-268 CNS it was 70.9 µM; in the test on CAKI-1 renal, 56 µM. Besides, the TGI in the test with OVCAR-5 ovarian was greater than 100 µM; with MOLT-4 leukemia, 16.3 µM; in the test with MDA-MB-435 it was 29.7 µM.
Regarding `Cc1nc2c(o1)C(=O)c1ccccc1/C2=N/c1ccccn1`, the TGI in the test with SR leukemia amounted to 97.3 µM; in the test with UO-31 renal, 39.3 µM; in the test on HOP-92 NSCLC, 36.9 µM; with NCI/ADR-RES ovarian, 56.9 µM; in the test on SF-268 CNS it was 68.9 µM; in the test on CAKI-1 renal, 47.9 µM. The TGI was determined as 32.4 µM with OVCAR-5 ovarian, 43.2 µM in the test with MOLT-4 leukemia and 31.9 µM with MDA-MB-435.
On to `CC1C(c2ccc3c(c2)OCO3)c2cc3c(cc2OC1N1CCCC1)OCO3` (stereo not drawn), for which the TGI in the test on SR leukemia was 89.8 µM; with UO-31 renal, 73 µM; in the test on NCI/ADR-RES ovarian, 87.7 µM; with SF-268 CNS it was greater than 100 µM; with CAKI-1 renal, 38.6 µM; with OVCAR-5 ovarian it was greater than 100 µM. In addition, the TGI is 69.9 µM in the test on MOLT-4 leukemia and 23.7 µM in the test on MDA-MB-435.
As for `CCOP(=O)(/C=C\n1cnc2c(=O)n(C(C)=O)c(N)nc21)OCC`, the TGI in the test on NCI-H226 lung, in the test on NCI/ADR-RES ovarian, in the test with CAKI-1 renal, in the test with OVCAR-5 ovarian, in the test on MOLT-4 leukemia and in the test with MDA-MB-435 was greater than 100 µM in each case.
Take `CC(C)OP(=O)(CN(C)/C(F)=N\C(F)(F)F)OC(C)C`: the TGI in the test with UO-31 renal, in the test on NCI-H226 lung, with HOP-92 NSCLC, in the test on NCI/ADR-RES ovarian, in the test on SF-268 CNS and in the test with CAKI-1 renal was greater than 100 µM each time. Besides, the TGI in the test on OVCAR-5 ovarian, in the test with MOLT-4 leukemia and in the test on MDA-MB-435 was greater than 100 µM throughout.
Regarding `NNC(=O)CNC(=O)CSc1nnc(COc2ccc(Cl)cc2)n1-c1ccccc1`, the TGI with UO-31 renal, with NCI-H226 lung, in the test with HOP-92 NSCLC, with NCI/ADR-RES ovarian, in the test on SF-268 CNS and with CAKI-1 renal was greater than 100 µM throughout. The TGI with OVCAR-5 ovarian, in the test with MOLT-4 leukemia and in the test with MDA-MB-435 was greater than 100 µM throughout.
On to `CC(=O)O[C@H]1CC[C@]2(C)[C@H]3CC[C@@H]4[C@H]5[C@H](C(C)C)CC[C@]5(C(=O)OCC(CO)(CO)N=C(N)N)CC[C@@]4(C)[C@]3(C)CC[C@H]2C1(C)C`, for which the GI50 in the test with SR leukemia was 2.11 µM; with HOP-92 NSCLC it was 1.48 µM; with NCI/ADR-RES ovarian, 2.23 µM; in the test on CAKI-1 renal it was 1.46 µM; in the test on OVCAR-5 ovarian, 1.67 µM; with MOLT-4 leukemia, 2.1 µM. The GI50 with MDA-MB-435 was 1.64 µM. The TGI was found to be 4.61 µM with SR leukemia; 2.93 µM in the test with HOP-92 NSCLC; 5.17 µM in the test with NCI/ADR-RES ovarian; 2.98 µM in the test on CAKI-1 renal; 3.09 µM in the test with OVCAR-5 ovarian; 4.83 µM in the test with MOLT-4 leukemia. The compound further returned a TGI in the test with MDA-MB-435 of 3.11 µM.
As to `COc1cc([C@@H]2c3cc4c(cc3[C@@H](NCCNCCO)[C@H]3COC(=O)[C@H]23)OCO4)cc(OC)c1O`, the GI50 was 0.303 µM with SR leukemia; 0.761 µM and 1.59 µM in the test with SF-268 CNS; 14 µM and 5.18 µM in the test with OVCAR-5 ovarian. Besides, the TGI in the test with UO-31 renal is 50 µM and 39.9 µM; in the test on NCI-H226 lung it was 4.97 µM and 4.5 µM; in the test on NCI/ADR-RES ovarian, greater than 100 µM; in the test with SF-268 CNS it was 51.8 µM; in the test on CAKI-1 renal, 30.1 µM and > 59.5 µM; with OVCAR-5 ovarian, 51.2 µM and 25.5 µM. In the test with MDA-MB-435, the TGI is 35 µM and 31.6 µM.
As to `c1ccc(C2SCC3=Nc4ccccc4CN32)cc1` (stereo not drawn), the TGI is greater than 100 µM with SR leukemia; greater than 100 µM with UO-31 renal; greater than 100 µM in the test on HOP-92 NSCLC; 48 µM in the test with NCI/ADR-RES ovarian; greater than 100 µM in the test on SF-268 CNS; greater than 100 µM in the test on CAKI-1 renal. For the same compound, the TGI with OVCAR-5 ovarian, with MOLT-4 leukemia and with MDA-MB-435 was greater than 100 µM each time.
For `CCSC1=N/C(=C\c2ccccc2O)C(Nc2ccc(C)cc2)=N1`, the TGI with UO-31 renal, in the test on NCI-H226 lung, in the test on HOP-92 NSCLC, with NCI/ADR-RES ovarian, in the test on SF-268 CNS and in the test with CAKI-1 renal was greater than 100 µM in each case. Further, the TGI in the test with OVCAR-5 ovarian, in the test on MOLT-4 leukemia and in the test on MDA-MB-435 was greater than 100 µM each time.
